From PMC11479946, “Coupling enzymatic activity and gating in an ancient TRPM chanzyme and its molecular evolution” (Nature Structural & Molecular Biology, 2024) come the findings set out here.

Assay [1] has as its target T1, srTRPM2 (Salpingoeca rosetta, UniProt F2UB89).
T1 construct: gene PTSG_05449; full length; N-terminal TwinStrepII-His8-eGFP tag (thrombin-cleaved for enzyme assays and nanodiscs); expressed in tsA201 cells; homotetramer, GDN detergent or nanodisc
The experiment in a line: HPLC fluorescence of etheno-AMP, Michaelis-Menten fit. The class given is biochemical. To be noted: 10 mM MgCl2 final, TBS-GDN, 25 °C; buckle helix truncated, borders not given.

Assay [2] has as its target T2, srTRPM2 (Salpingoeca rosetta, UniProt F2UB89, F268A).
T2 construct: gene PTSG_05449; full length; N-terminal TwinStrepII-His8-eGFP tag (thrombin-cleaved for enzyme assays and nanodiscs); expressed in tsA201 cells; homotetramer, GDN detergent or nanodisc
The experiment in a line: inside-out patch clamp, tsA201 cells, +[…] mV. To be noted: Ca2+ with ADPR; MHR1/2 site; no activation. The class given is biochemical. A general note: Patch clamp records ionic current or voltage across a cell membrane.

For assay [3], the target named is T1, srTRPM2. The experiment in a line: HPLC fluorescence of etheno-AMP, Michaelis-Menten fit. The class given is biochemical. Conditions: 10 mM MgCl2 final, TBS-GDN, 25 °C; all buckle helix residues mutated to alanine, positions not given.
The target of assay [4] is T3, srNUDT9-H (isolated domain) (Salpingoeca rosetta, UniProt F2UB89).
T3 construct: gene PTSG_05449; TwinStrepII-His8-eGFP tag, TEV-cleaved; expressed in tsA201 cells; monomeric
T3 sequence (F2UB89 entry or part of it): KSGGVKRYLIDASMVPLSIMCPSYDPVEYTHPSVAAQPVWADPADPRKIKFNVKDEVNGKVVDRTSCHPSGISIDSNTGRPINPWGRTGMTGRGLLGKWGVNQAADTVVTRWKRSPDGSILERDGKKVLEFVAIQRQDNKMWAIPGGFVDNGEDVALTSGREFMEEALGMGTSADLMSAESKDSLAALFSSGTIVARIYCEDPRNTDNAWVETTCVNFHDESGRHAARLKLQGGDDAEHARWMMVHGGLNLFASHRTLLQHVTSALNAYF
The description is as above. To be noted: 10 mM MgCl2 final, TBS-GDN, 25 °C. Type of assay: biochemical.

The target in assay [5] is T4, srTRPM2 (Salpingoeca rosetta, UniProt F2UB89, R275A).
T4 construct: gene PTSG_05449; full length; N-terminal TwinStrepII-His8-eGFP tag (thrombin-cleaved for enzyme assays and nanodiscs); expressed in tsA201 cells; homotetramer, GDN detergent or nanodisc
T4 sequence (F2UB89 entry or part of it R275A): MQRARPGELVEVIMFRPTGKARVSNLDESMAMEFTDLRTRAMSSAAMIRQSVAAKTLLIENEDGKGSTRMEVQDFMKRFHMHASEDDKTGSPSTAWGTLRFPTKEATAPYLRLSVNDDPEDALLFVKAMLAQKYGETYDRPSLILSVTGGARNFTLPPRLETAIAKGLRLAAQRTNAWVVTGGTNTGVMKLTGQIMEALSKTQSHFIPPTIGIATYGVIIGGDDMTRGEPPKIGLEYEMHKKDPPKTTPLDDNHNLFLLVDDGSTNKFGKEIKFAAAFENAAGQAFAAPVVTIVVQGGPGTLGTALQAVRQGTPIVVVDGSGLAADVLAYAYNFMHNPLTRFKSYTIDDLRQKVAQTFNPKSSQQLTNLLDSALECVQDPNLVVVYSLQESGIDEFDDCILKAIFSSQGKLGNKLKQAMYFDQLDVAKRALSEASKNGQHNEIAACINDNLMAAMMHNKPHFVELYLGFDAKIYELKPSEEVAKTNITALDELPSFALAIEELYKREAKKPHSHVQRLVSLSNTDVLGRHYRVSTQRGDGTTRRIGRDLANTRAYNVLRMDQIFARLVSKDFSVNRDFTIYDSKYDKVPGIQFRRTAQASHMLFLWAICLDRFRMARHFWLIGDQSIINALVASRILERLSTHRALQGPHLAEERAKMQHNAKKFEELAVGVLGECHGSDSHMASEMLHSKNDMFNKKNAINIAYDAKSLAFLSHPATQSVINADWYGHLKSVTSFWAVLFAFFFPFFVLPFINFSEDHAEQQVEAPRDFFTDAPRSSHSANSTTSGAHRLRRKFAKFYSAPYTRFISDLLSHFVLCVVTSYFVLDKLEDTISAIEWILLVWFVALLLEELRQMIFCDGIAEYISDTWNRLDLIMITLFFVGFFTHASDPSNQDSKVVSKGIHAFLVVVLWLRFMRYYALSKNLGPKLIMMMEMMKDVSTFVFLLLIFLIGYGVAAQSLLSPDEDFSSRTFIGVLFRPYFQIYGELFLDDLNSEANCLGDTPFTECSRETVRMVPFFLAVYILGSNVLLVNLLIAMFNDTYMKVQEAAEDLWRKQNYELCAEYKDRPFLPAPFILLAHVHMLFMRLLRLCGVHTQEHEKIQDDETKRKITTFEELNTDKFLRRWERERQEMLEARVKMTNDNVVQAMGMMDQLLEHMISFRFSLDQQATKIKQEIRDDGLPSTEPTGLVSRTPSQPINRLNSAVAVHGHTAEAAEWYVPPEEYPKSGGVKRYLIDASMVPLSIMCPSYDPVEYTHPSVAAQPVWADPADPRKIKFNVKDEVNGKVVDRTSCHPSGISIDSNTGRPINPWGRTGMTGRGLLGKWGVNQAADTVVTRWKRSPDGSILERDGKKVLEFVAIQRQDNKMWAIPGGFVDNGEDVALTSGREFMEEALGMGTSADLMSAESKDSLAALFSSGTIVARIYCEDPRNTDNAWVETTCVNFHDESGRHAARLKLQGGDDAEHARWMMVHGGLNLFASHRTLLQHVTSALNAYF
The experiment in a line: inside-out patch clamp, tsA201 cells, +[…] mV. The class given is biochemical. Conditions: Ca2+ with ADPR; MHR1/2 site; no activation; reduced expression level.

For assay [6], the target named is Salpingoeca rosetta TRPM2 chanzyme, wild type, full length (Salpingoeca rosetta). The experiment in a line: cryo-EM structure; purified protein with EDTA (1 mM), CaCl2 (1 mM), MgCl2 (10 mM) or EDTA–ADPR (1:1 mM), 30 min; apo or partially ligand-bound states; C4 symmetry; NUDT9-H domains flexible, not tetramerised.
Assay [7] shares this target. The experiment in a line: cryo-EM structure; purified protein in GDN or nanodisc with CaCl2–ADPR (1:1 mM), MgCl2–AMP–R5P (10:1:1 mM) or MgCl2–ADPR (10:1 mM; 5 s, 10 s or 4 min); fully ligand-bound states; NUDT9-H layer tetramerised via the buckle helix.
Assay [8] deals with srTRPM2–ΔNUDT9-H (Salpingoeca rosetta) (UniProt F2UB89). The experiment in a line: cryo-EM structure; purified protein with EDTA (1 mM), CaCl2 (1 mM), MgCl2 (10 mM) or EDTA–ADPR (1:1 mM), 30 min; apo or partially ligand-bound states; C4 symmetry; NUDT9-H domains flexible, not tetramerised.
Assay [9] shares this target. The experiment in a line: cryo-EM structure; purified protein in GDN or nanodisc with CaCl2–ADPR (1:1 mM), MgCl2–AMP–R5P (10:1:1 mM) or MgCl2–ADPR (10:1 mM; 5 s, 10 s or 4 min); fully ligand-bound states; NUDT9-H layer tetramerised via the buckle helix.
In assay [10] the target is srTRPM2–E1114A (Salpingoeca rosetta). The description is as above.

T1 sequence (F2UB89 entry or part of it): as the sequence (F2UB89 entry or part of it R275A) above, with A275R counted along it
T2 sequence (F2UB89 entry or part of it F268A): as the sequence (F2UB89 entry or part of it R275A) above, with F268A, A275R counted along it

In the case of `Nc1ncnc2c1ncn2[C@@H]1O[C@H](COP(=O)(O)OP(=O)(O)OC[C@H]2OC(O)[C@H](O)[C@@H]2O)[C@@H](O)[C@H]1O` (stereo partly shown) [ADPR], the KM entry is listed as “srTRPM2 lacking the buckle helix (ΔBH)” at srTRPM2 [1], “srTRPM2 with the buckle helix residues replaced by alanine (BH2A)” at srTRPM2 [3] and “representing the rate of ADPR hydrolysis by the isolated srNUDT9-H domain” in assay [4]. In addition, the “inside-out patch clamp, tsA201 cells, +60 mV” value on srTRPM2 [2] and on srTRPM2 [5] was “Replacement of either of these residues with alanine rendered srTRPM2 insensitive to ADPR” in each case.

In the case of “Salpingoeca rosetta TRPM2 chanzyme, wild type, full length (natural protein)”, the stoichiometry N in [6] and in assay [7] was 4 in each case.

Take “srTRPM2–ΔNUDT9-H (from UniProt F2UB89 1-1214) (domain or fragment)”: the stoichiometry N in assay [8] and in assay [9] was 4 in each case.

In [10], srTRPM2–E1114A (natural protein) had a stoichiometry N of 4.

As a reminder, the stoichiometry N is a count of units in the complex or per binding partner.
